Experiment [1] deals with S. aureus VRS2. Description: MIC, CLSI broth microdilution, S. aureus VRS2. The experiment is classed as cell-based, Staphylococcus aureus. On the procedure:
(§1) MICs were evaluated following the CLSI microdilution method in BBL™ Mueller-Hinton II broth (Wikler et al., Clinical Laboratory Standards Institute Document M7-A7, 29 (2009)). Briefly, two-fold serial dilutions of compound were prepared in triplicate in 96-well plates and inoculated with 5×10^5 cfu/mL of the bacterial suspension. Plates were incubated at 37° C. for 16-20 hours.

Experiment [2] concerns S. aureus NRS100. As to the kind of experiment: MIC, CLSI broth microdilution, S. aureus NRS100. The experiment is classed as cell-based, Staphylococcus aureus. On the procedure: as §1
Experiment [3] deals with T1, PBP1 (Staphylococcus aureus, UniProt Q53725).
T1 construct: Fluorescence labeling of S. aureus membrane preparation (150 μg) by Bocillin FL (30 μM); endogenous in cells; host or cells: S. aureus ATCC 29213 membrane preparation
Description: Bocillin FL competition assay, S. aureus membrane preparation. In kind it is binding. Here is the method:
S. aureus (ATCC 29213), a methicillin-sensitive strain, was grown in Difco Luria-Bertani (LB) broth at 37° C. until an OD625˜0.8. Cells were centrifuged at 3,200 g for 30 min at 4° C. and washed once with cold 100 mM NaH2PO4, 50 mM NaHCO3, pH 7.5, buffer. The cells were resuspended in 10 mL cold buffer containing complete EDTA-free protease inhibitor, 200 μg/mL lysostaphin, 15 μg/mL DNase I, 10 mM MgCl2, and 1 mM EDTA and incubated for 30 min at 37° C. Cells were sonicated using a Branson Sonifer for 5×1 min cycles, with 2 min of rest in between each cycle, and the lysate was centrifuged at 3,200 g for 20 min at 4° C. The supernatant was then ultracentrifuged at 32,000 rpm for 1 h at 4° C. and the pellet was washed once with cold buffer. The resulting membrane was resuspended in buffer, quantified using the BCA Protein Assay Kit, and the concentration was adjusted to 9 mg/mL.
The Bocillin FL competition assays were performed with purified PBP2a and membrane extracts. PBP2a was purified using a previously described protocol (Fuda et al., J. Biol. Chem. 279, 40802-40806 (2004)). […] Samples were centrifuged, loaded to SDS-PAGE, the gels were visualized immediately using a Storm840 Scanner, and fluorescence was quantified using ImageQuant software. IC50 values were calculated using GraphPad prism 5, using the previously published equation.

Experiment [4] has as its system T7 transcription. As to the kind of experiment: In vitro transcription assay (TranscriptAid T7 kit). In kind it is biochemical. From the text: For in vitro translation, the E. coli S30 Extract System for Circular DNA was used to set up the reactions using plasmid pCP19 containing the lacZ gene for β-galactosidase. Reaction mixtures were supplemented with two-fold dilutions of antibiotic 2 and the β-Galactosidase Enzyme Assay System with Reporter Lysis Buffer was used to quantify the amount of β-galactosidase translated by measuring absorbance at 420 nm. For in vitro transcription, a TranscriptAid T7 High Yield Transcription kit was used with a pET24a/dacB DNA construct under the T7 promoter. The purified plasmid was linearized using the restriction endonuclease XhoI and then purified according to the manufacturer's instructions. A series of samples were prepared and supplemented with two-fold dilutions of antibiotic 2. Samples were analyzed by running on a denaturing 1% formaldehyde agarose gel and stained with ethidium bromide to visualize RNA. Intensities of the bands were quantified and compared to the control to determine the amount of transcription occurring in the presence of 2.

Experiment [5] has as its system S. aureus (ATCC 29213). Description: Macromolecular synthesis assays. In kind it is cell-based, Staphylococcus aureus. From the text:
Mechanism of Action of the Quinazolinones. The mode of action of 2 was investigated by macromolecular synthesis assays in S. aureus in the logarithmic phase, which monitor incorporation of radiolabeled precursors [methyl-^3H]-thymidine, [5-^3H]-uridine, L-[4,5-^3H]-leucine, or D-[2,3-^3H]-alanine into DNA, RNA, protein, or cell wall (peptidoglycan), respectively. Inhibition of radiolabeled precursor incorporation by 2 at a concentration of half the MIC was compared with those of known inhibitors of each pathway (ciprofloxacin, rifampicin, tetracycline, and fosfomycin, respectively).
The mode of action of 2 was investigated by macromolecular synthesis assays in S. aureus in the logarithmic phase (Miller, A A et al. Antimicrob. Agents Chemother. 52, 2806-12 (2008)), which monitor incorporation of radiolabeled precursors [methyl-^3H]-thymidine, [5-^3H]-uridine, L-[4,5-^3H]-leucine, or D-[2,3-^3H]-alanine into DNA, RNA, protein, or cell wall (peptidoglycan), respectively.
The incorporation of radiolabeled precursors—[methyl-^3H]-thymidine, [5-^3H]-uridine, L-[4,5-^3H]-leucine, or D-[2,3-^3H]-alanine—into DNA, RNA, protein, or peptidoglycan, respectively, in logarithmically growing S. aureus (ATCC 29213) was measured using a previously published method, with aliquots taken every 20 min over a 120-min incubation period (Wilson et al., Antimicrob. Agents Chemother. 39, 1925-33 (1995)).

In experiment [6] the target is T2, PBP2a (Staphylococcus aureus, UniProt Q53707).
T2 construct: PBP2a was purified using a previously described protocol (Fuda et al., J. Biol. Chem. 279, 40802-40806 (2004)); made in house
As to the kind of experiment: Bocillin FL competition assay, purified recombinant PBP2a. The experiment is classed as binding, S. aureus. The text has this:
We next explored if it would inhibit purified recombinant PBP2a by a competition assay with Bocillin FL, a fluorescent penicillin reporter reagent. We purified PBP2a for this study using a previously described protocol from the laboratory of Prof. Mobashery (Fuda et al., J. Biol. Chem. 2004, 279, 40802-40806). This inhibition assay for PBPs has the limitation in that Bocillin FL is a covalent modifier of the active site of PBPs and the equilibrium is inexorably in favor of the irreversible acylation of the active-site serine by the reporter molecule. As such, the degree of inhibition by the non-covalent inhibitor (e.g., 2) will be underestimated.
This inhibition assay for PBPs has the limitation in that Bocillin FL is a covalent modifier of the active site of PBPs and the equilibrium is inexorably in favor of the irreversible acylation of the active-site serine by the reporter molecule. As such, the degree of inhibition by the non-covalent inhibitor (e.g., 2) will be underestimated. This is what was seen.
The Bocillin FL competition assays were performed with purified PBP2a and membrane extracts. […] Samples were centrifuged, loaded to SDS-PAGE, the gels were visualized immediately using a Storm840 Scanner, and fluorescence was quantified using ImageQuant software. IC50 values were calculated using GraphPad prism 5, using the previously published equation.

T2 sequence (Q53707 entry or part of it): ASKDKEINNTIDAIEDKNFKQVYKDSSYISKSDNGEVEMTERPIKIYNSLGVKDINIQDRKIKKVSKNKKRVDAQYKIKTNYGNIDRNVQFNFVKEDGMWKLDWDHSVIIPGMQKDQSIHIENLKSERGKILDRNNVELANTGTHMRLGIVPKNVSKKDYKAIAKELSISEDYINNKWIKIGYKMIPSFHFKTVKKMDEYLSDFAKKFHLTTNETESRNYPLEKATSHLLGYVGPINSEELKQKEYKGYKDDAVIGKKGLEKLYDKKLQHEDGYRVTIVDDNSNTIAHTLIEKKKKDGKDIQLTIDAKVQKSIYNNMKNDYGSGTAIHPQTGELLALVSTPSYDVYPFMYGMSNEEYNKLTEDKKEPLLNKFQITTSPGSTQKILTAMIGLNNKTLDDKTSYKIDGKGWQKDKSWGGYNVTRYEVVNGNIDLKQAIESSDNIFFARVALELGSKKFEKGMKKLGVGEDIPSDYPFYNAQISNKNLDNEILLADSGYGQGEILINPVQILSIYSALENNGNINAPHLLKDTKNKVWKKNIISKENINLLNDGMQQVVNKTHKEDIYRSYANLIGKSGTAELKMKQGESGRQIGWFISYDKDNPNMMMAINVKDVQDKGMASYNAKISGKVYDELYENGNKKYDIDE
T1 sequence (Q53725 1-744): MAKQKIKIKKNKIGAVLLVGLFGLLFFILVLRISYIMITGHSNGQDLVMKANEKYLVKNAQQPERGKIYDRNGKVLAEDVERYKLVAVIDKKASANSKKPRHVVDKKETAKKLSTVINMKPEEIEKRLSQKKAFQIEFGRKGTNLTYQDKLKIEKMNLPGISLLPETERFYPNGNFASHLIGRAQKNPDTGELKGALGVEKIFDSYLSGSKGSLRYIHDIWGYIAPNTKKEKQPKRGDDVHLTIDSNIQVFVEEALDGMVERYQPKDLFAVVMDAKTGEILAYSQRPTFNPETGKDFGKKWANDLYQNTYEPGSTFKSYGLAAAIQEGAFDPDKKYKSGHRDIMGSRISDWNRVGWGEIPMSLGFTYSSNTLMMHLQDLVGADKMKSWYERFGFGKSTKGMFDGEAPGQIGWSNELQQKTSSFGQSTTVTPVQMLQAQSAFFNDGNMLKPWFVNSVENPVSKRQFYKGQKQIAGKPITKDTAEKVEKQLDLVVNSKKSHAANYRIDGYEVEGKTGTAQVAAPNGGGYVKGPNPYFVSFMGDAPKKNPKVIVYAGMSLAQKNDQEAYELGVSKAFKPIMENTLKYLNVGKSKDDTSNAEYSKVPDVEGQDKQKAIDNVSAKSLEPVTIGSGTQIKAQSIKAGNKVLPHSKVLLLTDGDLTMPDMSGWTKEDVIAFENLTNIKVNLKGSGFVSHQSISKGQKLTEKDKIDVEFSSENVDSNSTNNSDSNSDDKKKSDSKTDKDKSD

With `N#Cc1ccc(/C=C/c2nc3ccccc3c(=O)n2-c2cccc(C(=O)O)c2)cc1.[Na]` [Compound 2, Sodium (E)-3-(3-carboxyphenyl)-2-(4-cyanostyryl)quinazolin-4(3H)-one], the MIC is 2 µg/mL in experiment [1] (Staphylococcus aureus, VRS2) and 16 µg/mL in experiment [2] (Staphylococcus aureus, NRS100). For the same compound, the In vitro AB activity (MIC) was determined as 2 µg/mL in experiment [1] (Table 2.1, S. aureus VRS2) and 16 µg/mL in experiment [2] (Table 2.1, S. aureus NRS100). The IC50 is 187 µM in experiment [3] and 336 µM in experiment [6]. Moreover, the “Inhibition of in vitro transcription” value in experiment [4] was “did not show any inhibition”. Further, the “Effect on replication, transcription, or translation” value in experiment [5] is recorded as “did not significantly affect”. Moreover, in experiment [5], the “Inhibition of cell-wall (peptidoglycan) biosynthesis” value amounted to 51±12%.

The values above are taken from patent US10329262B2, “Quinazolinone antibiotics” (priority 2013, dated 2019).
